Data from ChEMBL document CHEMBL1201862, “PubChem BioAssay data set” (2004).
Several values for one entry are separate records, joined by “and”; a condition that tells them apart may be missing. Equal values may be shown once.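 Growth conditions: 96-well plates. Treatment: test compound, 48 hours, 5 concentrations. Analysis: linear interpolation between bracketing concentrations; unreached endpoints set to highest concentration. GI50: concentration for 50% inhibition of growth.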 Activity calls are given as the source filed them. Rule as the data show it: active = GI50 up to about 1.1 µM and inactive = higher.

Columns and labels:
Assay in all cases: inhibition of tumour cell growth, NCI panel, 48 h
ACHN = test system: ACHN
K562 = test system: K562
NCI-H23 = test system: NCI-H23
HCC 2998 = test system: HCC 2998
SR = test system: SR
OVCAR-3 = test system: OVCAR-3
TK-10 = test system: TK-10
SF-295 = test system: SF-295
HOP-62 = test system: HOP-62
M19-MEL = test system: M19-MEL
U-251 = test system: U-251
CCRF-CEM = test system: CCRF-CEM
SK-OV-3 = test system: SK-OV-3
UACC-257 = test system: UACC-257
HOP-92 = test system: HOP-92
OVCAR-4 = test system: OVCAR-4
BT-549 = test system: BT-549
MDA-N = test system: MDA-N
MCF7 = test system: MCF7
DU-145 = test system: DU-145

Structure (SMILES)	GI50 (ACHN)	GI50 (K562)	GI50 (NCI-H23)	GI50 (HCC 2998)	GI50 (SR)	GI50 (OVCAR-3)	GI50 (TK-10)	GI50 (SF-295)	GI50 (HOP-62)	GI50 (M19-MEL)	GI50 (U-251)	GI50 (CCRF-CEM)	GI50 (SK-OV-3)	GI50 (UACC-257)	GI50 (HOP-92)	GI50 (OVCAR-4)	GI50 (BT-549)	GI50 (MDA-N)	GI50 (MCF7)	GI50 (DU-145)
O=C(/C=C/c1ccccc1O)c1ccccc1Cl	51500 nM (inactive)	23400 nM (inactive)	21.1 µM (inactive)	38.1 µM (inactive)	27.7 µM (inactive)	38.1 µM (inactive)	90.4 µM (inactive)	> 100000 nM (inactive)	75700 nM (inactive)	64600 nM (inactive)	39.9 µM (inactive)	19.3 µM (inactive)	45800 nM (inactive)	> 100 µM (inactive)	28800 nM (inactive)	19.2 µM (inactive)	–	–	–	–
Clc1ccc(OCc2nnc3n2N=C(c2ccc(Br)cc2)CS3)cc1	23200 nM (inactive)	> 100000 nM (inactive)	40.9 µM (inactive)	84.5 µM (inactive)	> 100 µM (inactive)	> 10 µM (inactive)	14.4 µM (inactive)	15800 nM (inactive)	9820 nM (inactive)	23600 nM (inactive)	30.7 µM (inactive)	> 100 µM (inactive)	15000 nM (inactive)	23.1 µM (inactive)	11200 nM (inactive)	7.89 µM (inactive)	–	–	–	–
CCOc1ccccc1NC(=O)C(C#N)C1=C(Cl)C(=O)c2ccccc2C1=O (configuration not stated)	1790 nM (inactive)	1580 nM (inactive)	2.14 µM (inactive)	1.75 µM (inactive)	1.33 µM (inactive)	1.6 µM (inactive)	2.22 µM (inactive)	1720 nM (inactive)	6040 nM (inactive)	177 nM (active)	1.71 µM (inactive)	0.867 µM (active)	26200 nM (inactive)	1.06 µM (active)	2050 nM (inactive)	1.94 µM (inactive)	–	–	–	–
CC1=C(N2CC2)C(=O)c2nc3n(c2C1=O)CCC3OC(=O)CCl (configuration not stated)	47 nM (active)	61.8 nM (active)	0.0358 µM (active)	0.0395 µM (active)	0.225 µM (active)	0.0771 µM (active)	0.13 µM (active)	37.3 nM (active)	53.2 nM (active)	81.7 nM (active)	0.0252 µM (active)	0.181 µM (active)	70.5 nM (active)	0.0883 µM (active)	3300 nM (inactive)	0.0719 µM (active)	15.2 nM (active)	22.2 nM (active)	< 10 nM (active)	21 nM (active)
COc1cccc2c1C(=O)c1c(O)c3c(c(O)c1C2=O)C[C@@](O)(C(=O)CO)C[C@@H]3OC1CC(N)C(O)C(C)O1 (some centres not stated)	255 nM (active)	–	76.4 nM (active) and 105 nM (active)	314 nM (active) and 191 nM (active)	10 nM (active) and 12.2 nM (active)	394 nM (active) and 474 nM (active)	726 nM (active) and 404 nM (active)	–	–	200 nM (active)	44.9 nM (active) and 85.9 nM (active)	34.8 nM (active) and 44.9 nM (active)	414 nM (active)	215 nM (active) and 337 nM (active)	–	1.16 µM (inactive) and 671 nM (active)	438 nM (active) and 255 nM (active)	–	16.9 nM (active)	–
